Source: BindingDB's records for doi:10.1002/cbic.200800782 (Philipps-UniversitÄT Marburg, 2009)

target: Queuine tRNA-ribosyltransferase (Zymomonas mobilis subsp. mobilis (strain ATCC 31821 / ZM4 / CP4), UniProt P28720); assay: Enzyme Assay; conditions: pH 7.3
Text: Inhibition assay using tRNA-guanine transglycosylase (TGT).

Queuine tRNA-ribosyltransferase, sequence (P28720 whole entry): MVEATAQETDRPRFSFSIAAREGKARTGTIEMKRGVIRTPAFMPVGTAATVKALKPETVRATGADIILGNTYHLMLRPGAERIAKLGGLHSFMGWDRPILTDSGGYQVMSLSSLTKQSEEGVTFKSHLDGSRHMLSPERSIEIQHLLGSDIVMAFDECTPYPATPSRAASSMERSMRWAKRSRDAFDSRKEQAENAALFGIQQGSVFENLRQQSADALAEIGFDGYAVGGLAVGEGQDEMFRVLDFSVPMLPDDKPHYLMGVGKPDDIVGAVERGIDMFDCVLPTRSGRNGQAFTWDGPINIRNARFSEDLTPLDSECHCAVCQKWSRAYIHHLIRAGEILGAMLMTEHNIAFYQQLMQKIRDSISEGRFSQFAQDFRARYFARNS

Row | SMILES | Ki [nM]
1 | Cc1nc2cc3nc(N)[nH]c(=O)c3cc2[nH]1 [lin-benzoguanine scaffold, 4] | 1500
2 | Nc1nc2cc3nc(NCCc4ccccc4)[nH]c3cc2c(=O)[nH]1 [lin-benzoguanine scaffold, 10] | 10
3 | Nc1nc2cc3nc(NCc4cccc5ccccc45)[nH]c3cc2c(=O)[nH]1 [lin-benzoguanine scaffold, 8] | 5.5
4 | Nc1nc2cc3nc[nH]c3cc2c(=O)[nH]1 [lin-benzoguanine scaffold, 3] | 4100
5 | CNc1nc2cc3c(=O)[nH]c(N)nc3cc2[nH]1 [lin-benzoguanine scaffold, 6] | 5.8
6 | CN(C)c1ccc2c(=O)[nH]c(N)nc2c1 [Quinazolinone scaffold, 1] | 31000
7 | CN(Cc1ccccc1)c1ccc2c(=O)[nH]c(N)nc2c1 [Quinazolinone scaffold, 2] | 7600
8 | Nc1nc2cc3nc(N)[nH]c3cc2c(=O)[nH]1 [lin-benzoguanine scaffold, 5] | 77
9 | Nc1nc2cc3[nH]c(NCCN4CCOCC4)nc3cc2c(=O)[nH]1 [lin-benzoguanine scaffold, 9] | 6
10 | Nc1nc2cc3nc(NCc4cccs4)[nH]c3cc2c(=O)[nH]1 [lin-benzoguanine scaffold, 7] | 3.5
